Source: ChEMBL document CHEMBL5728572, “Thiadiazole IRAK4 compounds” (2021)

Molecular target: T1, Interleukin-1 receptor-associated kinase 4 (Homo sapiens, UniProt Q9NWZ3)
T1 sequence (Q9NWZ3 whole entry): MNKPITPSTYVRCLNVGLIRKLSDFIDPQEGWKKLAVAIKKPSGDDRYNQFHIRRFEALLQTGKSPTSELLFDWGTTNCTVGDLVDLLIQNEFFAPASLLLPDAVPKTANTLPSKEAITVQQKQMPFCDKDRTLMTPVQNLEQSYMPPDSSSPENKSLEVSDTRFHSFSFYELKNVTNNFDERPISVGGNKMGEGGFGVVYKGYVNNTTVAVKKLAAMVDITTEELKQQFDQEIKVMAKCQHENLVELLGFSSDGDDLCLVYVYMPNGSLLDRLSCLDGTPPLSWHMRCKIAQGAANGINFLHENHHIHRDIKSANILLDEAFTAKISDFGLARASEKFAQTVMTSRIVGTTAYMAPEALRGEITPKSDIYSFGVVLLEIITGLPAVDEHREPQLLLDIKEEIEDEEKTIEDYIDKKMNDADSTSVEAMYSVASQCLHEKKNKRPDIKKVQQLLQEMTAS
Test: IRAK4 Biochemical Assay: IRAK4 enzyme (Carna Biosciences, Chuo-ku, Kobe, Japan) activity was measured by detecting phosphorylated peptide substrate formation using an antibody against the phosphorylated peptide substrate. This is a time-resolved fluorescence resonance energy transfer (TR-FRET) immunoassay, based on the STK1 KinEASE Assay (Cisbio, Bedford, Mass.). The assay was designed as a simple two-step, endpoint assay (a 5 μl enzyme reaction followed by 5 μl stop and detect Solution) performed in ProxiPlate-384 Plus plates (Perkin Elmer, Waltham, Mass.). Staurosporine, a non-selective kinase inhibitor was used as a positive control. Compounds diluted in DMSO were spotted into 384 well plates using a Labcyte® Echo 550 Liquid Handling System prior to addition of IRAK4 enzyme and peptide substrate. Reaction solutions were delivered using a Multi-Flo (Bio-Tek Instruments). The enzyme and peptide solution was incubated with compound for 15 minutes at room temp before the reaction was initiated by the addition of ATP. The standard 5 μl reaction mixture contained 500 μM ATP, […] (STK1 Peptide), 0.75 nM of IRAK4 in reaction buffer (50 mM HEPES, pH 7.0, 0.02% NaN3, 0.01% BSA, 0.1 mM Orthovanadate, 5 mM […], 0.025% NP-40, 1 mM DTT). […]

CC(C)Nc1cc(-c2ccc3cc(C#N)cnn23)ncc1-c1nnc(N2CCCC2)s1
IC50: 1.8 nM
